Data as given in patent US11420961B2, “Heterocyclic compounds” (Hoffmann-La Roche Inc., priority 2017, dated 2022).

Target: T1, MAGL (Homo sapiens, UniProt Q99685)
T1 sequence (Q99685 1-303): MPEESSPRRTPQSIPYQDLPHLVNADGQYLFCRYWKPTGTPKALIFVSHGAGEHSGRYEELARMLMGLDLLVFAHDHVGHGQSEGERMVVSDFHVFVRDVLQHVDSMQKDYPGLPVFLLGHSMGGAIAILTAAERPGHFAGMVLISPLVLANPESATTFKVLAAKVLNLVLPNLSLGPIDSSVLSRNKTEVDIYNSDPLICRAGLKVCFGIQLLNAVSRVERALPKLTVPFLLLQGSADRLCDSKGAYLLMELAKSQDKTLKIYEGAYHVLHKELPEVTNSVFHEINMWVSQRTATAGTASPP
Experiment: 2-AG assay: MAGL inhibitory activity by hydrolysis of 2-arachidonoylglycerol to arachidonic acid, mass spectrometry
Assay type: biochemical
Settings: 2-AG assay (values marked [a])
Experimental: Alternatively, compounds were profiled for MAGL inhibitory activity by determining the enzymatic activity by following the hydrolysis of the natural substrate, 2-arachidonoylglycerol, resulting in arachidonic acid, which can be followed by mass spectrometry. This assay is hereinafter abbreviated “2-AG assay”.
The 2-AG assay was carried out in 384 well assay plates (PP, Greiner Cat #784201) in a total volume of 20 μL. Compound dilutions were made in 100% DMSO (VWR Chemicals 23500.297) in a polypropylene plate in 3-fold dilution steps to give a final concentration range in the assay from 12.5 μM to […]. 0.25 μL compound dilutions (100% DMSO) were added to 9 μL MAGL in assay buffer (50 mM TRIS (GIBCO, 15567-027), 1 mM EDTA (Fluka, 03690-100 ml), 0.01% (v/v) Tween. After shaking, the plate was incubated for 15 min at RT. To start the reaction, 10 μL 2-arachidonoylglycerol in assay buffer was added. The final concentrations in the assay was […] and 8 μM 2-arachidonoylglyerol. After shaking and 30 min incubation at RT, the reaction was quenched by the addition of 40 μL of acetonitrile containing 4 μM of d8-arachidonic acid. The amount of arachidonic acid was traced by an online SPE system (Agilent Rapidfire) coupled to a triple quadrupole mass spectrometer (Agilent 6460). A C18 SPE cartridge (G9205A) was used in an acetonitrile/water liquid setup. The mass spectrometer was operated in negative electrospray mode following the mass transitions 303.1→259.1 for arachidonic acid and 311.1→267.0 for d8-arachidonic acid. The activity of the compounds was calculated based on the ratio of intensities [arachidonic acid/d8-arachidonic acid].

Structure (SMILES)	IC50 [nM]
Cn1ccc(C(c2ccccc2)C2CCN(C(=O)c3ccc4c(c3)NC(=O)CO4)CC2)cc1=O (single isomer, unassigned) [Example 143, 6-[4-[(R or S)-(1-Methyl-2-oxo-4-pyridyl)-phenyl-methyl]piperidine-1-carbonyl]-4H-1,4-benzoxazin-3-one]	79.3
Cn1cc(C(c2ccccc2)C2CCN(C(=O)c3ccc4c(c3)NC(=O)CO4)CC2)cn1 (single isomer, unassigned) [Example 140, 6-[4-[(S or R)-(1-Methylpyrazol-4-yl)-phenyl-methyl]piperidine-1-carbonyl]-4H-1,4-benzoxazin-3-one]	0.62
Cn1ccc(C(c2ccccc2)C2CCN(C(=O)c3ccc4c(c3)NC(=O)CO4)CC2)cc1=O (single isomer, unassigned) [Example 142, 6-[4-[(S or R)-(1-Methyl-2-oxo-4-pyridyl)-phenyl-methyl]piperidine-1-carbonyl]-4H-1,4-benzoxazin-3-one]	0.66
